Measurements: US7041465B1 (priority 1999, dated 2006)
Read-outs that look alike come from different tables or passages of the source.

Columns and labels:
[1] = molecular target: FimH binding to FimC (Escherichia coli, UniProt P08191); conditions: FimC coated at 0.1 nmol/well, FimH 5 pmol/well; for FimH binding to immobilized FimC in the presence of increasing concentrations of peptide: FIG. 13; for Inhibition of FimH binding to FimC immobilized on microtiter wells: peptide at 2 nmol/well (tested concentration), FIG. 14
Chain of FimH binding to FimC (P08191 22-300): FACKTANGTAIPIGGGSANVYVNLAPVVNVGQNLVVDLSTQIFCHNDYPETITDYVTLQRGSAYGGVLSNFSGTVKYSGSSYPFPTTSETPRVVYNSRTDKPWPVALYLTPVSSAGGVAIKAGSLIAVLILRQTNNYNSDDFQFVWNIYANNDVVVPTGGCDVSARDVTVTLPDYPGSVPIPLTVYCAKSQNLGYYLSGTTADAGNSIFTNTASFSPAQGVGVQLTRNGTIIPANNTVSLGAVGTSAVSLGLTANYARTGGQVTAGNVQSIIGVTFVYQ
Procedure: (§1) The peptides were diluted in phosphate buffered saline (PBS) (120 mM NaCl, 2.7 mM KCl, 10 mM, […], pH 7.4) to 2 nmol/50 μl. FimC protein was diluted to 0.1 nmol/50 μl and coated overnight onto microtiter wells with 50 μl/well at 4° C. The ELISA assay was carried out as described in Kuehn et al., 1993 and Hung et al., 1996. Briefly, the wells were washed three times with PBS and blocked with 3% Bovine Serum Albumin (BSA) in PBS for two hours at 25° C. Then the wells were washed three times with PBS. The FimC-FimH co-complex was incubated in 3 M urea to separate the two proteins. Pure FimH in 3 M urea was collected from the flow through of a Source 15S column (Pharmacia). See Barnhart et al., PNAS USA 97: 7709–7714 (2000). The wells were incubated with 50 μl of FimH in 3% BSA-PBS diluted to 5–25 pmol/well FimH for 45 minutes at 25° C. The wells were washed 3 times with PBS followed by incubation with a 1:1000 dilution of mouse anti-FimH antibodies in 3% BSA-PBS for 45 minutes at 25° C. The wells were washed 3 times with PBS followed by incubation with a 1:1000 dilution of goat antiserum to mouse IgG (Sigma) conjugated to alkaline phosphatase diluted in 3% BSA-PBS for 45 minutes at 25° C. The wells were washed 3 times with PBS and washed 3 times with developing buffer (10 mM diethanolamine, 0.4 mM MgCl2). The ELISA was developed by adding 50 μl of substrate (50 μl of filtered 1 mg/ml p-nitrophenyl phosphate; Sigma) in developing buffer. The reaction was incubated for 1 hour at 25° C. in the dark and the absorbance at 405 nm was read.
(§2) The competition assays were carried out similarly. FimC was coated onto microtiter wells at 0.1 nmol/well. FimH at 5 pmol/well in 3% BSA-PBS was added to the FimC coated wells in the presence or the absence of the FimC or FimG peptide at 2 nmol/well or the indicated peptide concentration. Further, increasing concentrations of FimH were incubated with constant concentrations of the FimC or FimG peptides or the FimC protein immobilized on microtiter wells. […] FimH was added to the FimC coated wells in the presence or absence of peptides to FimC or FimG.

[2] = molecular target: FimH (Escherichia coli, UniProt P08191); conditions: peptides coated at 2 nmol/50 μl, FimC protein at 0.1 nmol/50 μl; increasing concentrations of FimH (5–25 pmol/well); FIG. 12
Chain of FimH (P08191 22-300): as above
Procedure: as §1, §2

Sequence	FimH binding to immobilized FimC in the presence of increasing concentrations of peptide [1]	FimH binding to immobilized FimC in the presence of increasing concentrations of peptide ([1]; listed as FimC polypeptide)	Inhibition of FimH binding to FimC immobilized on microtiter wells [1]	FimH binding to the immobilized peptide or FimC protein (ELISA, anti-FimH antibodies, absorbance at 405 nm) [2]
NTLQLAIISR [FimC peptide]	further decreased the ability of FimH to bind to FimC	inhibit FimH binding to FimC	inhibited the ability of FimH to bind to FimC	bound well
DVTITVNGK [FimG peptide]			did not inhibit	bound well
